Laboratory results published in patent US10106565B2 (priority 2008, dated 2018).

Legend:
human monocytes = assay: Flow cytometry phenotype of dendrimer-activated monocytes (surface markers); assay type: cell-based; conditions: 20 μM, compared with alt- and class-monocytes
Procedure: For the functional experiments, freshly purified monocytes are cultured in 6-well plates. The cells are stimulated for 24 hours (immunophenotyping by flow cytometry analyses, MLR) or 96 hours (CD206 detection) with different stimuli or remain untreated (control). Dendrimer-activated monocytes (da-monocytes) are obtained with 20 μM of the dendrimer Gc1, alternatively-activated monocytes (alt-monocytes) with 10 U/mL recombinant human IL4 (Peprotech). The classical activation of monocytes is obtained by priming the cells over night (18 hours) with 100 U/mL of human recombinant IFN-γ (R&D Systems) and, after a washing step in PBS, by stimulation with 10 ng/mL LPS from E. coli 011/B4 strain (InvivoGen) for the remaining 6 hours or […].
Flow cytometry is performed on a LSR-II cytometer (BD Biosciences). The data are analyzed with FACSDiva (BD Biosciences) or WinMDI softwares. The expression of surface markers is performed using mouse anti-human fluorochrome-conjugated mAbs specific for MHC class II-FITC (clone Tü36), CD86-PE (clone 2331), MHC class I-PE-Cy5 (clone G46-2.6) and CD13-PE (clone WM15) from BD Biosciences and specific for CD64-FITC (clone 22) and CD206-PE (clone 3.29B1.10) from Beckman-Coulter. Appropriate isotype-matched antibodies are used as negative control.

CD4+ T cells = assay: Intracellular detection of IL10 in CD4+ T cells after MLR; assay type: cell-based, human; conditions: PBL:monocytes 4:1, 5 hours re-stimulation; compared to MLR with class-monocytes
Procedure: Six days following the primary stimulation with one of the differently activated monocytes at a ratio of PBL:monocytes of 4:1, cells were restimulated with 10000 anti-CD 3/anti-CD28 beads for 5 hours (according to the technical description by J. P. Edwards et al., (2006) J Leukoc Biol 80, 1298-1307) and with 10 μg/mL Brefeldin A (Sigma-Aldrich) to inhibit cytokine secretion. Cells are then harvested, washed with PBS and incubated 15 minutes at 4° C. with mouse mAb anti-human CD4-PE (clone 13B8.2, Beckman-Coulter) in PBS with 5% FCS. Cells washed twice, are then fixed by 2% paraformaldehyde in PBS and permeabilized with 1% saponin in PBS. Intracellular staining is performed with AlloPhycoCyanin-conjugated rat anti-human IL10 (clone JES3-19F1, BD Bioscience) for 30 minutes at 4° C. in PBS with 1% saponin and analyzed by flow cytometry. Each condition is done in triplicate and results are expressed as the mean±SD. Intracellular IL10 mean fluorescence intensity (mfi) means across the differently activated monocytes are compared by one-way analysis of variance, the comparisons between CD4^+/CFSE^− and CD4^+/CFSE^+ cells are done with Student's t-test using Sigma Stat software (Systat Software).

CN(/N=C/c1ccc(OP2(Oc3ccc(/C=N/N(C)P(=S)(Oc4ccc(CCN(CP(=O)(O)O)CP(=O)(O)O)cc4)Oc4ccc(CCN(CP(=O)(O)O)CP(=O)(O)O)cc4)cc3)=NP(Oc3ccc(/C=N/N(C)P(=S)(Oc4ccc(CCN(CP(=O)(O)O)CP(=O)(O)O)cc4)Oc4ccc(CCN(CP(=O)(O)O)CP(=O)(O)O)cc4)cc3)(Oc3ccc(/C=N/N(C)P(=S)(Oc4ccc(CCN(CP(=O)(O)O)CP(=O)(O)O)cc4)Oc4ccc(CCN(CP(=O)(O)O)CP(=O)(O)O)cc4)cc3)=NP(Oc3ccc(/C=N/N(C)P(=S)(Oc4ccc(CCN(CP(=O)(O)O)CP(=O)(O)O)cc4)Oc4ccc(CCN(CP(=O)(O)O)CP(=O)(O)O)cc4)cc3)(c3ccc(/C=N/N(C)P(=S)(Oc4ccc(CCN(CP(=O)(O)O)CP(=O)(O)O)cc4)Oc4ccc(CCN(CP(=O)(O)O)CP(=O)(O)O)cc4)cc3)=N2)cc1)P(=S)(Oc1ccc(CCN(CP(=O)(O)O)CP(=O)(O)O)cc1)Oc1ccc(CCN(CP(=O)(O)O)CP(=O)(O)O)cc1 (centres unmarked) [Gc1]
cell surface expression of CD13 (aminopeptidase N) (human monocytes; 24 hours): Class-monocytes express a higher level of CD13 than alt- and da-monocytes | cell surface expression of CD64 (FcγRI) (human monocytes; 24 hours): overexpressed in class-monocytes, but not in alt- or da-monocytes | expression of HLA-DR, HLA-A,B,C and CD86 (antigen-presenting capacity) (human monocytes; 24 hours): poor APC | cell surface expression of mannose receptor MRC1 (CD206) (human monocytes; 96 hours): strongly enhanced | production of IL10 by divided CD4+ T cells in MLR with da-monocytes (CD4+ T cells): significantly enhanced
